Results taken from patent US6355799B1, “Substituted benzene compounds, process for their preparation, and herbicidal and defoliant compositions containing them” (ISK Americas Incorporated, priority 1997, dated 2002).

Tests used:
Format in all cases: in vivo
[1] = system: large crabgrass (Digitaria sanguinalis, DIGSA); assay: Pre-emerge test, greenhouse herbicide activity screening
Text: (§1) A standard greenhouse herbicide activity screening system was used to evaluate the herbicidal efficacy and crop safety of these test compounds. Seven broadleaf weed species including redroot pigweed (Amaranthus retroflexus, AMARE, velvetleaf (Abutilon theophrasti, ABUTH), sicklepod (Cassia obtusifolia, CASOB), ivyleaf morningglory (Ipomoea hederacea, IPOHE), lambsquarters (Chenopodium album, CHEAL), common ragweed (Ambrosia artemisizfolia L., AMBEL), and cocklebur (Xanthium strumarium, XANST) were used as test species. Four grass weed species including green foxtail (Setaria viridis, SETVI), barnyardgrass (Echinochloa crus-galli, ECHCG), johnsongrass (Sorghum halepense, SORHA), and large crabgrass (Digitaria sanguinalis, DIGSA) were also used. In addition, three crop species, field corn (Zea mays L., var. Dekalb 535, CORN), soybean (Glycine max L., var. Pella 86, SOY), and is upland rice (Oryza sp., var. Tebonnet, RICE) were included.
(§2) All plants were grown in 10 cm square plastic pots which were filled with a sandy loam soil mix. For pre-emerge tests, seeds were planted one day prior to application of the test compounds. For post-emerge tests, seeds were planted 8-21 days prior to the test to allow emergence and good foliage development prior to application of the test substances. At the time of the post-emerge application, plants of all species were usually at the 2-3 leaf stage of development.
(§3) All test compounds Were dissolved in acetone and applied to the test units in a volume of 187 l /ha. Test materials were applied at rates ranging from 15 g ai/ha to 1000 g ai/ha using a track sprayer equipped with a TJ8001E even flow flat fan spray nozzle. Plants were arranged on a shelf so that the top of the canopy (post-emerge) or top of the soil surface (pre-emerge) was 40-45 cm below the nozzle. Pressurized air was used to force the test solution through the nozzle as it was mechanically advanced (via electrically driven chain drive) over the top of all test plants/pots. This application simulates a typical commercial field herbicide application.
(§4) In the post-emerge test, a commercial non-ionic surfactant was also included (0.25% v/v) to enhance wetting of the leaf surfaces of target plants. Immediately after application, test units of the pre-emerge applications were watered at the soil surface to incorporate the test materials. Subsequently, these test units were bottom-watered. Post-emerge test units were always bottom-watered.
(§5) At 14 days after application of the test materials, phytotoxicity ratings were recorded. A rating scale of 0-100 was used as previously described in Research Methods in Weed Science, 2nd edition, B. Truelove, Ed., Southern Weed Science Society, Auburn University, Auburn, Ala. 1977. Briefly, “0” corresponds to no damage and “100” corresponds to complete death of all plants in the test unit. This scale was used both to determine efficacy against weed species and damage to crop species. Herbicide activity data for various compounds of this invention, which are shown by compound No. in Tables 1-8, are shown in Tables 11 and 12.

[2] = system: lambsquarters (Chenopodium album, CHEAL); assay: as above
Text: as §1, §2, §3, §4, §5

[3] = system: green foxtail (Setaria viridis, SETVI); assay: as above
Text: as §1, §2, §3, §4, §5

[4] = system: barnyardgrass (Echinochloa crus-galli, ECHCG); assay: as above
Text: as §1, §2, §3, §4, §5

[5] = system: sicklepod (Cassia obtusifolia, CASOB); assay: as above
Text: as §1, §2, §3, §4, §5

[6] = system: velvetleaf (Abutilon theophrasti, ABUTH); assay: as above
Text: as §1, §2, §3, §4, §5

[7] = system: ivyleaf morningglory (Ipomoea hederacea, IPOHE); assay: as above
Text: as §1, §2, §3, §4, §5

[8] = system: field corn (Zea mays L., var. Dekalb 535, CORN); assay: Pre-emerge test, crop safety
Procedure, shortened: (§6)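 Compounds in acetone were track-sprayed at 15-1000 g ai/ha (187 l/ha) on sandy loam pots: pre-emerge one day after seeding, post-emerge at 2-3 leaf stage with 0.25% v/v non-ionic surfactant. Phytotoxicity was rated 14 days later on a 0 (no damage) to 100 (complete death) scale.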

[9] = system: upland rice (Oryza sp., var. Tebonnet, RICE); assay: Pre-emerge test, crop safety
Procedure, shortened: as §6

[10] = system: field corn (Zea mays L., var. Dekalb 535, CORN); assay: Post-emerge test, crop safety; conditions: post-emerge; for phytotoxicity rating CORN (crop damage): 14 days after application, rating scale 0-100; for Post-emerge Herbicidal Activity CORN: crop damage rating 0-100 at 14 days after application
Procedure, shortened: (§7)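 Rating: 0–100 visual injury, 14 DAA. Application: acetone, 187 l/ha, 15–1000 g ai/ha, flat-fan track sprayer with nozzle 40–45 cm above soil or canopy. Post-emerge runs used 0.25% v/v surfactant on 2–3 leaf plants.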

[11] = system: upland rice (Oryza sp., var. Tebonnet, RICE); assay: Post-emerge test, crop safety; conditions: post-emerge; for phytotoxicity rating RICE (crop damage): 14 days after application, rating scale 0-100; for Post-emerge Herbicidal Activity RICE: crop damage rating 0-100 at 14 days after application
Procedure, shortened: as §7

[12] = system: large crabgrass (Digitaria sanguinalis, DIGSA); assay: Post-emerge test, greenhouse herbicide activity screening; conditions: post-emerge; for phytotoxicity rating DIGSA: 14 days after application, rating scale 0-100; for Post-emerge Herbicidal Activity DIGSA: phytotoxicity rating 0-100 at 14 days after application
Text: as §1, §2, §3, §4, §5

[13] = system: lambsquarters (Chenopodium album, CHEAL); assay: as above; conditions: post-emerge; for phytotoxicity rating CHEAL: 14 days after application, rating scale 0-100; for Post-emerge Herbicidal Activity CHEAL: phytotoxicity rating 0-100 at 14 days after application
Text: as §1, §2, §3, §4, §5

[14] = system: redroot pigweed (Amaranthus retroflexus, AMARE); assay: as above; conditions: post-emerge; for phytotoxicity rating AMARE: 14 days after application; for Post-emerge Herbicidal Activity AMARE: phytotoxicity rating 0-100 at 14 days after application
Text: as §1, §2, §3, §4, §5

[15] = system: green foxtail (Setaria viridis, SETVI); assay: as above; conditions: post-emerge; for phytotoxicity rating SETVI: 14 days after application, rating scale 0-100; for Post-emerge Herbicidal Activity SETVI: phytotoxicity rating 0-100 at 14 days after application
Text: as §1, §2, §3, §4, §5

[16] = system: barnyardgrass (Echinochloa crus-galli, ECHCG); assay: as above; conditions: post-emerge; for phytotoxicity rating ECHCG: 14 days after application, rating scale 0-100; for Post-emerge Herbicidal Activity ECHCG: phytotoxicity rating 0-100 at 14 days after application
Text: as §1, §2, §3, §4, §5

[17] = system: sicklepod (Cassia obtusifolia, CASOB); assay: as above; conditions: post-emerge; for phytotoxicity rating CASOB: 14 days after application, rating scale 0-100; for Post-emerge Herbicidal Activity CASOB: phytotoxicity rating 0-100 at 14 days after application
Text: as §1, §2, §3, §4, §5

[18] = system: velvetleaf (Abutilon theophrasti, ABUTH); assay: as above; conditions: post-emerge; for phytotoxicity rating ABUTH: 14 days after application, rating scale 0-100; for Post-emerge Herbicidal Activity ABUTH: phytotoxicity rating 0-100 at 14 days after application
Text: as §1, §2, §3, §4, §5

[19] = system: ivyleaf morningglory (Ipomoea hederacea, IPOHE); assay: as above; conditions: post-emerge; for phytotoxicity rating IPOHE: 14 days after application, rating scale 0-100; for Post-emerge Herbicidal Activity IPOHE: phytotoxicity rating 0-100 at 14 days after application
Text: as §1, §2, §3, §4, §5

[20] = system: redroot pigweed (Amaranthus retroflexus, AMARE); assay: Pre-emerge test, greenhouse herbicide activity screening
Procedure, shortened: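 Herbicidal damage is scored 0 (none) to 100 (complete plant death) two weeks after a simulated field spray. Rates span 15–1000 g ai/ha, delivered in acetone at 187 l/ha. For post-emergence treatments, plants have 2–3 leaves and the spray carries 0.25% v/v non-ionic surfactant.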

[21] = 63 g ai/ha, phytotoxicity rating 0-100, 14 days after application
[22] = 250 g ai/ha, phytotoxicity rating 0-100, 14 days after application
[23] = 63 g ai/ha, crop damage rating 0-100, 14 days after application
[24] = 250 g ai/ha, crop damage rating 0-100, 14 days after application
[25] = pre-emerge, rate 63 g ai/ha, phytotoxicity rating 0-100 at 14 days after application
[26] = pre-emerge, rate 250 g ai/ha, phytotoxicity rating 0-100 at 14 days after application
[27] = crop damage, pre-emerge, rate 63 g ai/ha, phytotoxicity rating 0-100 at 14 days after application
[28] = crop damage, pre-emerge, rate 250 g ai/ha, phytotoxicity rating 0-100 at 14 days after application

COc1c(Cl)cc(F)c(-n2c(=O)cc(C(F)(F)F)n(C)c2=O)c1NC(=O)OC(C)c1ccccc1 (centres unmarked) [4-47]
50: phytotoxicity rating ECHCG ([16]; 250 g ai/ha)
95: phytotoxicity rating AMARE ([14]; 250 g ai/ha, rating scale 0-100)
0: Pre-emerge Herbicidal Activity CASOB [5, 21]
20: Pre-emerge Herbicidal Activity RICE [9, 23]
85: phytotoxicity rating IPOHE ([19]; 63 g ai/ha)
70: Pre-emerge Herbicidal Activity DIGSA [1, 21] | Pre-emerge Herbicidal Activity CASOB [5, 22] | Pre-emerge Herbicidal Activity RICE [9, 24] | Pre-emerge Herbicidal Activity AMARE [20, 21]
65: phytotoxicity rating CORN (crop damage) ([10]; 250 g ai/ha)
90: Pre-emerge Herbicidal Activity CORN [8, 24]
10: phytotoxicity rating ABUTH ([18]; 250 g ai/ha)
75: phytotoxicity rating AMARE ([14]; 63 g ai/ha, rating scale 0-100 (0 no damage, 100 complete death))
60: Pre-emerge Herbicidal Activity ECHCG [4, 21] | phytotoxicity rating RICE (crop damage) ([11]; 250 g ai/ha) | phytotoxicity rating SETVI ([15]; 250 g ai/ha)
40: phytotoxicity rating DIGSA ([12]; 63 g ai/ha) | phytotoxicity rating SETVI ([15]; 63 g ai/ha)
98: Pre-emerge Herbicidal Activity ECHCG [4, 22]
100: Pre-emerge Herbicidal Activity DIGSA [1, 22] | Pre-emerge Herbicidal Activity CHEAL [2, 21] | Pre-emerge Herbicidal Activity CHEAL [2, 22] | Pre-emerge Herbicidal Activity SETVI [3, 22] | Pre-emerge Herbicidal Activity ABUTH [6, 21] | Pre-emerge Herbicidal Activity ABUTH [6, 22] | Pre-emerge Herbicidal Activity IPOHE [7, 22] | phytotoxicity rating CHEAL ([13]; 63 g ai/ha) | phytotoxicity rating CHEAL ([13]; 250 g ai/ha) | phytotoxicity rating CASOB ([17]; 63 g ai/ha) | phytotoxicity rating CASOB ([17]; 250 g ai/ha) | phytotoxicity rating ABUTH ([18]; 63 g ai/ha) | phytotoxicity rating IPOHE ([19]; 250 g ai/ha) | Pre-emerge Herbicidal Activity AMARE [20, 22]
80: Pre-emerge Herbicidal Activity SETVI [3, 21]
30: Pre-emerge Herbicidal Activity IPOHE [7, 21] | Pre-emerge Herbicidal Activity CORN [8, 23] | phytotoxicity rating CORN (crop damage) ([10]; 63 g ai/ha) | phytotoxicity rating RICE (crop damage) ([11]; 63 g ai/ha) | phytotoxicity rating DIGSA ([12]; 250 g ai/ha) | phytotoxicity rating ECHCG ([16]; 63 g ai/ha)

Cc1c(Cl)cc(F)c(-n2c(=O)cc(C(F)(F)F)n(C)c2=O)c1NC(=O)OCc1cccc([N+](=O)[O-])c1 [4-67]
90: Pre-emerge Herbicidal Activity SETVI [3, 25] | Pre-emerge Herbicidal Activity IPOHE [7, 26] | Post-emerge Herbicidal Activity SETVI ([15]; 63 g ai/ha) | Post-emerge Herbicidal Activity SETVI ([15]; 250 g ai/ha)
5: Pre-emerge Herbicidal Activity CORN [8, 27]
60: Pre-emerge Herbicidal Activity CASOB [5, 26] | Pre-emerge Herbicidal Activity RICE [9, 27]
15: Pre-emerge Herbicidal Activity CORN [8, 28]
40: Pre-emerge Herbicidal Activity ECHCG [4, 25] | Pre-emerge Herbicidal Activity CASOB [5, 25] | Pre-emerge Herbicidal Activity RICE [9, 28] | Post-emerge Herbicidal Activity ECHCG ([16]; 63 g ai/ha)
100: Pre-emerge Herbicidal Activity DIGSA [1, 25] | Pre-emerge Herbicidal Activity DIGSA [1, 26] | Pre-emerge Herbicidal Activity CHEAL [2, 25] | Pre-emerge Herbicidal Activity CHEAL [2, 26] | Pre-emerge Herbicidal Activity SETVI [3, 26] | Pre-emerge Herbicidal Activity ABUTH [6, 25] | Pre-emerge Herbicidal Activity ABUTH [6, 26] | Post-emerge Herbicidal Activity CHEAL ([13]; 63 g ai/ha) | Post-emerge Herbicidal Activity CHEAL ([13]; 250 g ai/ha) | Post-emerge Herbicidal Activity AMARE ([14]; 63 g ai/ha) | Post-emerge Herbicidal Activity AMARE ([14]; 250 g ai/ha) | Post-emerge Herbicidal Activity CASOB ([17]; 63 g ai/ha) | Post-emerge Herbicidal Activity CASOB ([17]; 250 g ai/ha) | Post-emerge Herbicidal Activity ABUTH ([18]; 63 g ai/ha) | Post-emerge Herbicidal Activity ABUTH ([18]; 250 g ai/ha) | Post-emerge Herbicidal Activity IPOHE ([19]; 63 g ai/ha) | Post-emerge Herbicidal Activity IPOHE ([19]; 250 g ai/ha) | Pre-emerge Herbicidal Activity AMARE [20, 25] | Pre-emerge Herbicidal Activity AMARE [20, 26]
55: Post-emerge Herbicidal Activity CORN ([10]; 63 g ai/ha)
80: Pre-emerge Herbicidal Activity ECHCG [4, 26] | Pre-emerge Herbicidal Activity IPOHE [7, 25] | Post-emerge Herbicidal Activity DIGSA ([12]; 250 g ai/ha)
70: Post-emerge Herbicidal Activity CORN ([10]; 250 g ai/ha) | Post-emerge Herbicidal Activity RICE ([11]; 250 g ai/ha) | Post-emerge Herbicidal Activity DIGSA ([12]; 63 g ai/ha) | Post-emerge Herbicidal Activity ECHCG ([16]; 250 g ai/ha)
50: Post-emerge Herbicidal Activity RICE ([11]; 63 g ai/ha)
